Calls of active or inactive are those of the source. No cut-off for these calls is given here.

We go through eleven compounds from ChEMBL document CHEMBL3407453, “LEADOPT: an automatic tool for structure-based lead optimization, and its application in structural optimizations of VEGFR2 and SYK inhibitors” (Eur J Med Chem, 2015).

For assay [1], the system named is HUVEC. Briefly: Antiangiogenic activity in HUVEC cells assessed as inhibition of cell migration at 5 uM after 18 hrs by wound healing assay. It counts as functional, cell-based. The following applies: Homo sapiens.
The target of assay [2] is T1, Vascular endothelial growth factor receptor 2 (Homo sapiens, UniProt P35968). Conditions: HUVEC, at 0.01 to 10 µM.
T1 sequence (P35968 whole entry): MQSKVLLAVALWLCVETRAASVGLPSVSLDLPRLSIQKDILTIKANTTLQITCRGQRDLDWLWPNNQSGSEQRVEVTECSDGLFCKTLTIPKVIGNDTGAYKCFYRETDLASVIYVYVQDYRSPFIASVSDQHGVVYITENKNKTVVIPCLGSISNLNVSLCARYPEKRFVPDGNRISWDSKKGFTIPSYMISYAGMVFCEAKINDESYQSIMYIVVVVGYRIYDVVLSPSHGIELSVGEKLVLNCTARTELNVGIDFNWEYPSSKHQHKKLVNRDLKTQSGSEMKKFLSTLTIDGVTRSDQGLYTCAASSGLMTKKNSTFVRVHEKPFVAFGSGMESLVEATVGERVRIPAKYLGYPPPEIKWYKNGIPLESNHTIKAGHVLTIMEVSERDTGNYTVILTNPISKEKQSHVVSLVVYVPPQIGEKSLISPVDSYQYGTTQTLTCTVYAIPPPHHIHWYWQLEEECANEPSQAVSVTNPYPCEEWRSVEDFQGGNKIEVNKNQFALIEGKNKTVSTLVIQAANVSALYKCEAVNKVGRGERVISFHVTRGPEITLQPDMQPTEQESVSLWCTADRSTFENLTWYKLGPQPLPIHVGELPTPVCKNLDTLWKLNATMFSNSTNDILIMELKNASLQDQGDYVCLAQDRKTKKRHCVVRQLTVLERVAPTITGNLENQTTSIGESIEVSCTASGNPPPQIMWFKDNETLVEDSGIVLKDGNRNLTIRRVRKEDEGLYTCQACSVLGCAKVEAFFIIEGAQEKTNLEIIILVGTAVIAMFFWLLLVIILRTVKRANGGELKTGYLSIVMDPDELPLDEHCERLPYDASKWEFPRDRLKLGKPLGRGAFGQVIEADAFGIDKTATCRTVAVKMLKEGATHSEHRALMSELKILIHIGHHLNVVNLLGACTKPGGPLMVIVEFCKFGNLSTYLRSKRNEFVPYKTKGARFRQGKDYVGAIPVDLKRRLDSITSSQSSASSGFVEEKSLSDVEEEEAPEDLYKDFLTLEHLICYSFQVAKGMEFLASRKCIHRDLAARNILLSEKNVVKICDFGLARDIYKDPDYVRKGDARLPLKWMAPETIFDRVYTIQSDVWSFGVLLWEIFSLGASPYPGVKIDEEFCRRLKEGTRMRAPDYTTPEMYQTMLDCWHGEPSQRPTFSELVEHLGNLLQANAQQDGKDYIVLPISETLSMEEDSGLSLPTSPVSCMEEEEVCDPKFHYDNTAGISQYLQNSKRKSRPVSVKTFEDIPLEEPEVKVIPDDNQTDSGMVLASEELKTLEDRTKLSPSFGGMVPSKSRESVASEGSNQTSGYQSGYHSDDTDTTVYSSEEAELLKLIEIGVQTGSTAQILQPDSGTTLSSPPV
Description: Inhibition of VEGFR2 phosphorylation in VEGF-stimulated HUVEC cells at 0.01 to 10 uM after 2 hrs by Western blot analysis
Assay [3] deals with T1, Vascular endothelial growth factor receptor 2. Briefly: Inhibition of VEGFR2-mediated ERK1/2 phosphorylation in VEGF-stimulated HUVEC cells at 0.01 to 10 uM after 2 hrs by Western blot analysis. It counts as cell-based. Background: In western blotting, separated proteins are transferred to a membrane and probed.
For assay [4] the target is unchanged. In words: Inhibition of VEGFR2 (unknown origin) by [33P]radiolabeled method.
In assay [5] the test system is HUVEC. Briefly: Antiangiogenic activity in HUVEC cells assessed as inhibition of cell migration after 18 hrs by wound healing assay. Format: functional, cell-based. Conditions: Homo sapiens.
For assay [6], the target named is T2, Tyrosine-protein kinase SYK (Homo sapiens, UniProt P43405). Briefly: Inhibition of SYK (unknown origin).
A further assay concerns MV4-11. Briefly: Cytotoxicity against human MV4-11 cells assessed as reduction in cell viability after 72 hrs by MTT assay. Format: functional, cell-based. Conditions: MV4-11, 72 h. A general note: Tetrazolium dyes change colour on reduction, which living cells bring about.
The target of assay [7] is T2, Tyrosine-protein kinase SYK. In words: Inhibition of SYK-mediated ERK1/2 phosphorylation in human MV4-11 cells at 0.01 to 1 uM after 6 hrs by Western blot analysis. It counts as cell-based.
Another assay deals with Ramos. In words: Cytotoxicity against human Ramos cells assessed as reduction in cell viability after 72 hrs by MTT assay. It counts as functional, cell-based.
Assay [8] addresses T2, Tyrosine-protein kinase SYK. In words: Inhibition of SYK-mediated FLT3 phosphorylation in human MV4-11 cells at 0.01 to 1 uM after 6 hrs by Western blot analysis. Format: cell-based.

As to `CNC(=O)c1cc(Oc2ccc(NC(=O)Nc3ccc(Cl)c(C(F)(F)F)c3)cc2)ccn1`, in the assay with HUVEC [1], the inhibition result was “Active”. As to `CNC(=O)c1cc(Oc2ccc(NC(=O)Nc3cc(C(C)(C)C)on3)cc2)ccn1`, the inhibition entry (in assay [2]; with HUVEC [1]; in assay [3]) was “Active” throughout. 0.017 µM corresponded to half-maximal inhibition in [4] (IC50). The inhibition result with HUVEC [5] is “Dose-dependent effect”. Turning to `COc1cc(Nc2ncc(F)c(Nc3ccc4nc(C)cc(N)c4c3)n2)cc(OC)c1OC`, in [6], the IC50 (in general, the point on the concentration scale where inhibition reaches its midpoint) amounted to 2.96 µM. Regarding `Cc1cc(N)c2cc(Nc3nc(Nc4ccc(N5CCN(C)CC5)cc4)ncc3F)ccc2n1`, the IC50 was determined as 0.003 µM in the assay on MV4-11, 0.51 µM with Ramos and 0.013 µM in [6]. For the same compound, the inhibition result in assay [7] and in assay [8] was “Active” in each case. In the case of `COc1cc(Nc2ncc(F)c(Nc3cccc(C(N)=O)c3)n2)cc(OC)c1OC`, it took 1.13 µM to reach half-maximal inhibition in assay [6] (IC50).

In the case of `N#Cc1cc(Oc2ccc(NC(=O)Nc3ccc(Cl)c(C(F)(F)F)c3)cc2)ccn1`, the IC50 in assay [4] turned out to be 0.214 µM.

In assay [4], `CNC(=O)c1nccc(Oc2ccc(NC(=O)Nc3nc4ccccc4s3)cc2)n1` showed a half-inhibitory concentration (IC50) of 0.036 µM. In the case of `Nc1nccc(Oc2ccc(NC(=O)Nc3nc4ccccc4s3)cc2)n1`, the IC50 in assay [4] came out at 0.12 µM.

Regarding `O=C(Nc1ccc(Oc2ccnc3ccccc23)cc1)Nc1ccc(Cl)c(C(F)(F)F)c1`, the IC50 in [4] was 0.119 µM. In turn, `Nc1nccc(Oc2ccc(NC(=O)Nc3ccc(Cl)c(C(F)(F)F)c3)cc2)n1` registered an IC50 in assay [4] of 0.023 µM.

In assay [6], `COc1cc(Nc2ncc(F)c(Nc3cc(Cl)ccc3C(N)=O)n2)cc(OC)c1OC` displayed a concentration for half-maximal inhibition (IC50) of 0.326 µM.
